Data from patent US11040056B2, “Benzimidazoles that enhance the activity of oligonucleotides” (The University of North Carolina at Chapel Hill, priority 2018, dated 2021).

Key:
[1] = test system: P-glycoprotein (Pgp) expression in NIH-3T3-MDR cells; test: ASO mediated inhibition of MDR1 gene expression (Pgp by flow cytometry); assay type: cell-based, mouse; details: 100 nM anti-MDR1 ASO 16 h; 10 μM UNC2383 2 h where used; 48 h
Procedure: FIG. 4. Effects with ASOs. Reduction of Pgp expression. NIH 3T3-MDR cells were incubated with 100 nM anti-MDR1 ASO or a mismatched (MM) control for 16 h in DMEM+1% FBS. Cells were rinsed and then treated with 10 μM UNC2383 for 2 h. The compound was removed, and the cells further incubated for 48 h. Expression of Pgp on the cell surface was determined by treating cells with Alexa 488 labeled anti-Pgp monoclonal antibody and binding quantitated by flow cytometry (PE(A)=units of fluorescence intensity). Treatment with ASO complexed with Lipofectamine 2000 (L2K) was a positive control. Y axis, cell counts; X axis, Alexa 488 fluorescence. […] Means±SE, N=3.
We also tested UNC2383 for its ability to affect ASOs rather than SSOs. The ASO was designed to inhibit expression of the MDR1 gene and its product the P-glycoprotein multidrug transporter. […] Cell surface expression of P-glycoprotein was monitored using an Alexa 488 labeled anti-Pgp monoclonal antibody and flow cytometry. […]
SSO-mediated luciferase induction assays were conducted as previously described. (18) In short, HeLaLuc705 cells in 24 well culture plates were preincubated with SSO623 followed by brief treatment with the small molecule; at intervals thereafter, luciferase activity and protein content were determined. […] Cytotoxicity of 2383 was monitored using the Alamar Blue assay. […]

EGFP654 transgenic mouse = test: In vivo EGFP splice correction in EGFP654 transgenic mice
Procedure: FIG. 10A-10E. In vivo effects-RNA. EGFP654 mice were treated with SSO623 or a mismatched control (MM) and then received UNC2383 or diluent (N=3). RT-PCR with gel analysis was used to detect correctly or incorrectly spliced EGFP mRNA. The gel images were quantitated using Fiji software. Gel image for liver FIG. 10A. The lower band (87 bp) is correctly spliced EGFP mRNA, while the upper band (160 bp) is uncorrected. FIG. 10B-10E Quantitation of splice correction in liver FIG. 10B, kidney FIG. 10C, intestine FIG. 10D, and lung FIG. 10E. The bars indicate the ratio of correctly spliced to incorrectly spliced mRNA×100. […] EGFP immunostaining was performed in liver, lung, and intestine tissue and analyzed by confocal microscopy. […]
Effects of UNC2383 on endosome stability were monitored in cell culture models as previously described. […] Live cells were imaged by fluorescence confocal microscopy with or without treatment with UNC2383 or its analogs. […] Co-localization of TAMRA labeled SSO 623 with marker proteins was quantitated using Fiji (ImageJ) software and expressed as a Manders' Correlation Coefficient. […] EGFP protein expression was monitored by immunostaining with an anti-EGFP antibody (Abcam) using techniques previously described. […]
PCR techniques. […] The PCR products were separated on 1.5% agarose gels and bands were visualized by staining with Gel RedTMand quantitated using a Biorad ChemiDoc XRS+ scanner. […]

O=C(Nc1nc2ccccc2n1CCN1CCCC1)c1cc2cc(Cl)ccc2o1 [UNC2383]
Pgp expression on the cell surface [1]: substantial reduction | correctly spliced EGFP message (RT-PCR) (EGFP654 transgenic mouse; 35 mg/kg SSO623 i.p. two days, then 5 mg/kg UNC2383 i.p., liver, kidney, lung, intestine, 5 h): increase in correctly spliced EGFP message | EGFP protein expression (immunostaining) (EGFP654 transgenic mouse; SSO623 plus UNC2383, bronchi, intestinal crypts, 24 h): expressed EGFP
